From patent US20230365938A1, “METHODS OF FORMING COMPOSITIONS CONTAINING COLLAGEN” (priority 2019, published 2023)

Assays:
[1] = tested on: Human mesenchymal stem cells (hMSC); test: Cell proliferation (MTS) of hMSC treated with RSV, NAM or RSV+NAM; format: cell-based; conditions: 48 hours, serum-free media, normoxia, increasing dose, vs DMSO control
Description: Human mesenchymal stem cells (hMSC) were obtained from American Type Culture Collection (ATCC, Manassas, VA). Cells were stored in liquid nitrogen until use. MSCs were maintained in minimum essential medium, alpha (aMEM, Corning®, Corning, NY) supplemented with 16% Fetal Bovine Serum (FBS, VWR, Radnor, PA) and 4 mM L-glutamine (Sigma-Aldrich, St. Louis, MO). Medium was changed every other day, and once the cells reached 70-80% confluence, the cells were detached by trypsin-EDTA solution (VWR, Radnor, PA). hMSC were seeded (density 5,000 cells/cm^2) on 25 cm^2. When cells reached 80% confluency (4-5 days), they were washed two times with 5 ml of PBS. The growth media was then changed to serum-free media with or without a product treatment (5 ml), and the cells were cultured for 48 hours. […] Cell proliferation was assessed using CellTiter 96® AQueous Non-Radioactive Cell Proliferation Assay (MTS, Promega, Madison WI) based on the redox conversion of a tetrazolium salt into formazan product. […] The cells were incubated for 2 hours, and the absorbance of each well at 490 nm was measured using a SpectraMax® 190 Microplate Reader. Cell proliferation was determined using MTS, colorimetric assay after the cells were treated for 48 hours in serum free media with the vehicle (DMSO) as control, resveratrol (RSV), nicotinamide (NAM), or a combination (RSV+NAM) in serum-free media under normoxia. […]

hMSC secretome = test: LC-MS/MS analysis of secreted proteins in the secretome; format: cell-based, human; conditions: n=4; for number of down-regulated proteins (Fold ≤ 1.5) vs control / number of up-regulated proteins (Fold ≥ 1.5) vs control: vs DMSO under normoxia
Description: Human mesenchymal stem cells (hMSC) were obtained from American Type Culture Collection (ATCC, Manassas, VA). Cells were stored in liquid nitrogen until use. MSCs were maintained in minimum essential medium, alpha (aMEM, Corning®, Corning, NY) supplemented with 16% Fetal Bovine Serum (FBS, VWR, Radnor, PA) and 4 mM L-glutamine (Sigma-Aldrich, St. Louis, MO). Medium was changed every other day, and once the cells reached 70-80% confluence, the cells were detached by trypsin-EDTA solution (VWR, Radnor, PA). hMSC were seeded (density 5,000 cells/cm^2) on 25 cm^2. When cells reached 80% confluency (4-5 days), they were washed two times with 5 ml of PBS. The growth media was then changed to serum-free media with or without a product treatment (5 ml), and the cells were cultured for 48 hours. Experiments were performed in two different environments, normoxia (about 18.6% oxygen) and hypoxia (5% oxygen). Cells were incubated at 37° C. and 5% CO2 throughout the experiment.
To characterize the hMSC secretome, condition media (CM or secretome) was collected from cells cultured under FBS-free for 48 hours. CM was filtered through a 0.45 μm syringe filter to remove residual cells and cell debris. The resulting condition media was concentrated and washed 3 times with 50 mM ammonium bicarbonate using Corning® Spin-X® UF Concentrators (10K Dalton, Corning®, Corning, NY) at 3,000 g for 25 minutes each cycle. Following, the secretome was collected from the concentrator, frozen at −80° C., and lyophilized 24 hours. Lyophilized secretome was stored at −80° C. For functional experiments with CM, normal hMSCs (passages 6-8) were used.
The amount of secretome was normalized in all samples, and 50 μl of the sample were pipetted in microcentrifuge units (Millipore, Burlington, MA) and digested following the filter aided sample preparation (FASP) protein digestion kit from Expedeon (San Diego, CA). Samples were reduced using 0.1 M dithiothreitol for 15 minutes at 50° C. […] was achieved using iodoacetamide for 20 minutes at room temperature following by 2× washing steps with 8 M urea and 50 mM ammonium bicarbonate. The samples were then enzymatically digested with trypsin at 37° C. overnight. Finally, samples were collected by spinning the microcentrifuge units at 14000 rcf for 20 minutes with a final wash with distilled water and freeze-dried. Prior to LC-MS/MS analysis, samples were resuspended in 0.1% formic acid.
Mass spectrometry analysis was executed in the orbitrap Thermo Velos Pro system (Thermo Fisher Scientific, Waltman, MA) using Thermo Xcalibur™ Roadmap software (Thermo Fisher Scientific, Waltman, MA). For this study, secretome from 4 independent experiments were processed and analyzed independently.
Mass spectra were analyzed using Proteome Discoverer™ 2.1 (Thermo Fisher Scientific, Waltman, MA) label-free differential protein expression analysis and the Sequest™ HT. Xcalibur™ raw data collected from the mass spectrometer was imported from the MS spectra and processed as followed. Only features compromising charges of 2+ and 3+ were selected. The mass precision was 2 ppm and mass tolerance 0.02 Da for fragment mass tolerance. Trypsin was set as the digestion enzyme with a maximum of two allowed missed cleavages with six as the minimum peptide length. Cysteine carbamidomethylation (C) was set as a fixed modification, and N-terminal acetylation and methionine oxidation were allowed as variable modifications. The spectra were searched using the Sequest™ HT search engine against the human Uniprot sequence database. Percolator node was used to filter data using 0.1 for FDR at the peptide and protein level. For relative quantification in a label-free analysis, the precursor ion area detector node was used, and ratios were calculated by dividing the treated samples vs. the control group (DMSO under normoxia). […]

| SMILES | cell proliferation (MTS) versus control [1] | Total proteins (number of proteins secreted) (hMSC secretome; Hypoxia (5% O2)) | Unique vs control (number of unique proteins) (hMSC secretome; Hypoxia (5% O2)) | number of down-regulated proteins (Fold ≤ 1.5) vs control (hMSC secretome; Hypoxia (5% O2)) | number of up-regulated proteins (Fold ≥ 1.5) vs control (hMSC secretome; Hypoxia (5% O2)) | Total proteins (number of proteins secreted) (hMSC secretome; Normoxia) | Unique vs control (number of unique proteins) (hMSC secretome; Normoxia) | number of down-regulated proteins (Fold ≤ 1.5) vs control (hMSC secretome; Normoxia) | number of up-regulated proteins (Fold ≥ 1.5) vs control (hMSC secretome; Normoxia) |
| --- | --- | --- | --- | --- | --- | --- | --- | --- | --- |
| NC(=O)c1cccnc1 [nicotinamide] | not a significant difference | – | – | – | – | – | – | – | – |
| Oc1ccc(/C=C/c2cc(O)cc(O)c2)cc1 [RSV, 3,5,4′-trihydroxy-trans-stilbene] | not a significant difference | 55 | 2 | 0 | 30 | 51 | 2 | 3 | 7 |
